US20250129430A1, “HIGH ATP-AFFINITY PROTEIN AS THERAPEUTIC TARGET FOR INTRACTABLE CANCER MOLECULAR SUBTYPES AND INHIBITOR THEREOF” (VeraVerse Co., Ltd., priority 2021, published 2025)

Legend:
Assay type in all cases: cell-based, human
[1] = tested on: non-SEM-type gastric cancer cell line; test: Cell viability drug screen, AUC summary over non-SEM-type lines; conditions: in the non-SEM-type gastric cancer cell line
SNU216 = test: Cell viability drug screen, 12-point dose-response AUC; conditions: SNU216 cells; 72 hours; 12-point dose-response
Method in brief: (§1)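 Luminescent viability readings, taken 15 min after reagent addition at room temperature, were normalized to the 0.5% DMSO control to build 12-point dose-response curves. Trapezoidal integration gave the AUC. Cells had been plated at 5×10^3 per well and then exposed to half-log dilutions for 72 h.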

YCC3 = test: as above; conditions: YCC3 cells; 72 hours; 12-point dose-response
Method in brief: as §1

NCI_N87 = test: as above; conditions: NCI_N87 cells; 72 hours; 12-point dose-response
Method in brief: as §1

OCUM1 = test: as above; conditions: OCUM1 cells; 72 hours; 12-point dose-response
Method in brief: as §1

SK4 = test: as above; conditions: SK4 cells; 72 hours; 12-point dose-response
Method in brief: as §1

Hs746T = test: as above; conditions: Hs746T cells; 72 hours; 12-point dose-response
Method in brief: as §1

SNU484 = test: as above; conditions: SNU484 cells; 72 hours; 12-point dose-response
Method in brief: as §1

NCC19 = test: as above; conditions: NCC19 cells; 72 hours; 12-point dose-response
Method in brief: as §1

MKN1 = test: as above; conditions: MKN1 cells; 72 hours; 12-point dose-response
Method in brief: as §1

SNU16 = test: as above; conditions: SNU16 cells; 72 hours; 12-point dose-response
Method in brief: as §1

NCC24 = test: as above; conditions: NCC24 cells; 72 hours; 12-point dose-response
Method in brief: as §1

MKN45 = test: as above; conditions: MKN45 cells; 72 hours; 12-point dose-response
Method in brief: as §1

SNU601 = test: as above; conditions: SNU601 cells; 72 hours; 12-point dose-response
Method in brief: as §1

MKN28 = test: as above; conditions: MKN28 cells; 72 hours; 12-point dose-response
Method in brief: as §1

MKN74 = test: as above; conditions: MKN74 cells; 72 hours; 12-point dose-response
Method in brief: as §1

SNU1750 = test: as above; conditions: SNU1750 cells; 72 hours; 12-point dose-response
Method in brief: as §1

SNU719 = test: as above; conditions: SNU719 cells; 72 hours; 12-point dose-response
Method in brief: as §1

KATO3 = test: as above; conditions: KATO3 cells; 72 hours; 12-point dose-response
Method in brief: as §1

SNU1967 = test: as above; conditions: SNU1967 cells; 72 hours; 12-point dose-response
Method in brief: as §1

NCC20 = test: as above; conditions: NCC20 cells; 72 hours; 12-point dose-response
Method in brief: as §1

SNU668 = test: as above; conditions: SNU668 cells; 72 hours; 12-point dose-response
Method in brief: as §1

SNU620 = test: as above; conditions: SNU620 cells; 72 hours; 12-point dose-response
Method in brief: as §1

SNU638 = test: as above; conditions: SNU638 cells; 72 hours; 12-point dose-response
Method in brief: as §1

YCC11 = test: as above; conditions: YCC11 cells; 72 hours; 12-point dose-response
Method in brief: as §1

YCC2 = test: as above; conditions: YCC2 cells; 72 hours; 12-point dose-response
Method in brief: as §1

NCC59 = test: as above; conditions: NCC59 cells; 72 hours; 12-point dose-response
Method in brief: as §1

AGS = test: as above; conditions: AGS cells; 72 hours; 12-point dose-response
Method in brief: as §1

SNU1 = test: as above; conditions: SNU1 cells; 72 hours; 12-point dose-response
Method in brief: as §1

FU97 = test: as above; conditions: FU97 cells; 72 hours; 12-point dose-response
Method in brief: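 Trapezoidal AUC of a 12-point, DMSO-normalized dose-response curve. Luminescent viability was measured after 72 h of exposure at 37° C to half-log serial dilutions (0.5% DMSO control), dosed 24 h after plating FU97 cells at 5×10^3 per well.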

Compound	AUC value [1]	area under the viability curve (AUC), normalized (SNU216)	area under the viability curve (AUC), normalized (YCC3)	area under the viability curve (AUC), normalized (NCI_N87)	area under the viability curve (AUC), normalized (OCUM1)	area under the viability curve (AUC), normalized (SK4)	area under the viability curve (AUC), normalized (Hs746T)	area under the viability curve (AUC), normalized (SNU484)	area under the viability curve (AUC), normalized (NCC19)	area under the viability curve (AUC), normalized (MKN1)	area under the viability curve (AUC), normalized (SNU16)	area under the viability curve (AUC), normalized (NCC24)	area under the viability curve (AUC), normalized (MKN45)	area under the viability curve (AUC), normalized (SNU601)	area under the viability curve (AUC), normalized (MKN28)	area under the viability curve (AUC), normalized (MKN74)	area under the viability curve (AUC), normalized (SNU1750)	area under the viability curve (AUC), normalized (SNU719)	area under the viability curve (AUC), normalized (KATO3)	area under the viability curve (AUC), normalized (SNU1967)	further results
Nc1cc(C(F)(F)F)c(-c2cc(N3CCOCC3)nc(N3CCOCC3)n2)cn1 [BKM120]	high	0.1342	1.085	−0.38	0.7561	−1.247	0	−0.475	0.6866	−0.1827	−0.3076	−0.4391	1.074	0.9711	−0.0925	−0.05182	−0.4392	3.314	2.449	0.676	area under the viability curve (AUC), normalized (NCC20): −0.07502; area under the viability curve (AUC), normalized (SNU668): 0.2688; area under the viability curve (AUC), normalized (SNU620): −0.08823; area under the viability curve (AUC), normalized (SNU638): 0.01503; area under the viability curve (AUC), normalized (YCC11): −1.147; area under the viability curve (AUC), normalized (YCC2): 0.7169; area under the viability curve (AUC), normalized (NCC59): 1.23; area under the viability curve (AUC), normalized (AGS): −1.094; area under the viability curve (AUC), normalized (SNU1): 0.2556; area under the viability curve (AUC), normalized (FU97): −1.3007
COC(=O)Nc1nc2ccc(Sc3ccccc3)cc2[nH]1 [Fenbendazole]	high	1.005	1.376	−1.124	1.283	−0.2953	0.5728	−0.08111	−0.2779	−0.0568	1.2297	−0.8488	1.407	0.599	−0.7877	−0.2802	0.2596	3.382	2.344	0.184	area under the viability curve (AUC), normalized (NCC20): −0.5211; area under the viability curve (AUC), normalized (SNU668): 0; area under the viability curve (AUC), normalized (SNU620): −1.425; area under the viability curve (AUC), normalized (SNU638): −0.3689; area under the viability curve (AUC), normalized (YCC11): −0.7305; area under the viability curve (AUC), normalized (YCC2): 0.5695; area under the viability curve (AUC), normalized (NCC59): 1.9513; area under the viability curve (AUC), normalized (AGS): −1.16; area under the viability curve (AUC), normalized (SNU1): 0.1629; area under the viability curve (AUC), normalized (FU97): −1.854
CN(C)c1ccc(C(=C2C=CC(=[N+](C)C)C=C2)c2ccc(N(C)C)cc2)cc1 [Crystal Violet, Crystal violet]	high	−0.02818	0.9437	0.4907	0.7741	−1.015	−0.2085	−0.7108	0.4873	0.4211	−0.5668	0.2743	1.101	0.9442	0	−0.5721	−0.5514	3.076	0.911	0.3458	area under the viability curve (AUC), normalized (NCC20): −1.031; area under the viability curve (AUC), normalized (SNU668): 0.1937; area under the viability curve (AUC), normalized (SNU620): −0.7672; area under the viability curve (AUC), normalized (SNU638): −0.4956; area under the viability curve (AUC), normalized (YCC11): −0.8996; area under the viability curve (AUC), normalized (YCC2): 0.4289; area under the viability curve (AUC), normalized (NCC59): 0.5098; area under the viability curve (AUC), normalized (AGS): −0.4769; area under the viability curve (AUC), normalized (SNU1): −0.5355; area under the viability curve (AUC), normalized (FU97): −0.985
